Reference: patent publication US20230107216A1, “PANTETHEINE DERIVATIVES AND USES THEREOF” (Comet Therapeutics, Inc., priority 2018, published 2023)
Where two headings read alike, the source gives them in different places.

How the values were obtained:
Type in all cases: cell-based
[1] = test system: Methylmalonic Acidemia (MMA) primary fibroblasts Tsi 5224; assay: Mitochondrial respiration, XFe96 Extracellular Flux Analyzer (OCR/ECAR), MMA fibroblasts Tsi 5224; details: Homo sapiens, Fibroblast, MMA Tsi 5224, assay condition A (10 mM glucose, 2 mM L-glutamine, 1 mM pyruvate, 10% FBS), read-out: Increase in Maximal Respiratory Capacity AUC;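 further: relative to vehicle DMSO control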
Description: The effect of the compounds of the present disclosure on mitochondrial respiration was measured with a XFe96 Extracellular Flux Analyzer (Seahorse Bioscience, Agilent Technologies) and Oxygen consumption Rate (OCR) and Extracellular acidification rate (ECAR) determined.
Cell culture and treatments. Primary adherent fibroblasts were cultured in minimum essential medium (MEM) (Gibco, 25030081) supplemented with 2 mM L-Glutamine (Gibco, 25030081), 15% fetal bovine serum (FBS) (Gibco, 26400044) and 1% penicillin/streptomycin (Gibco, 5140122) at 37° C. and 5% CO2. Cells were collected for either passaging or experiment at ˜70-80% confluence. Cells were obtained by trypsinization and seeded at 20000 cells/well in cell culture microplates (Seahorse Bioscience, 101085-004) and allowed to adhere for 16 hours in culture media.
By profiling different primary cells and/or optimizing their culture media or environmental components one can select cell lines and/or conditions that are appropriate for the biological or disease model. In the present example, 24 hours prior to OCR and ECAR profiling, media was changed to Dulbecco's Modified Eagle Medium (DMEM, Agilent Seahorse 103575-100) with the appropriate supplements for the different primary cells (10 mM glucose, 2 mM L-glutamine, 1 mM pyruvate, 10% FBS; 1 mM glucose, 2 mM L-glutamine, 1 mM pyruvate, 10% FBS; 10 mM glucose, 10% FBS; 5 mM glucose 10% FBS; 1 mM glucose 10% FBS). Cells used in this example were: Propionic Acidemia (PA) (GM00371, GM03590 Coriell Institute for Medical Research, Tsi 6337, Tsi 4626, Tsi 3618 Trans-Hit Bio), Methylmalonic Acidemia (MMA) (GM01673, Coriell Institute for Medical Research, Tsi 5224 Trans-Hit Bio), Branched chain ketoacid dehydrogenase kinase (BCKDK) (GM00612, GM00649 Coriell Institute for Medical Research), Subnormal activation of pyruvate dehydrogenase complex (PDH) (GM01503 Coriell Institute for Medical Research), Very long-chain acyl-CoA dehydrogenase (VLCAD) (GM17475), Leigh Syndrome (LS) (GM03672, GM13411 Coriell Institute for Medical Research), Pyruvate Carboxylase Deficiency (PC) (GM00444 Coriell Institute for Medical Research), Glutaric Acidemia-I (GA) (GM10653), Friedreich's Ataxia (FXN) (GM04078 Coriell Institute for Medical Research, Huntington's disease (HD) (GM21756 Coriell Institute for Medical Research), Ornithine Transcarbamylase Deficiency (OTC) (GM12756 Coriell Institute for Medical Research), Kearns-Sayre Syndrome (KSS) (GM06225 Coriell Institute for Medical Research).
One hour before the assay, the cells were washed with freshly prepared unbuffered serum free-Seahorse XF Assay medium (Seahorse Bioscience, North America, USA, 103575-100) with the same supplements as for the previous 24 hour incubation.
After baseline measurements of OCR, cells were challenged with compounds of the present disclosure at different concentrations (10 to 50 μM) or vehicle (DMSO, 0.1%) and a post-compound baseline was recorded. OCR was measured after sequentially adding to each well 1 μg/ml oligomycin (inhibitor of ATP synthase Sigma-Aldrich, 753531), then maximal OCR was determined with carbonyl cyanide 4-(trifluoromethoxy) phenylhydrazone (FCCP, Sigma-Aldrich, C2920), (uncoupler of oxidative phosphorylation) and 0.5 μM of rotenone (Sigma-Aldrich, R8875) plus antimycin A (Sigma-Aldrich, A8674) (inhibitors of mitochondrial complex I and III) for determination of rotenone-antimycin insensitive respiration together with Hoechst for nuclear staining in situ when normalized to cell counts. After the analysis and nuclear staining, the XFp microplate was transferred to the Cytation 5, and the nuclear images were captured, the individual nuclei were identified and counted by BioTek Gen5 software. Data were expressed as pmol of O2 per minute and normalized by nuclear staining and baselined to pre-compound addition.
Assay conditions were as stated below.
Assay specifics on assay conditions are indicated below when readouts were normalized to cell counts. […]

HepG2 cells [2] = assay: Glucose uptake (Glucose Uptake-Glo); details: Homo sapiens, read-out: % increase in Glucose Uptake
[3] = test system: Propionic Acidemia (PA) primary fibroblasts GM00371; assay: Mitochondrial respiration, XFe96 Extracellular Flux Analyzer (OCR/ECAR), PA fibroblasts GM00371; details: Homo sapiens, Fibroblast
HepG2 cells [4] = assay: Mitochondrial membrane potential (MITO-ID MP detection Kit); details: Homo sapiens, 168 h, 50 uM, 7 days, read-out: % decrease in Mitochondrial Membrane Potential
Description: HepG2 cells (ATCC, HB-8065) were cultured (5% CO2 at 37° C.) and plated in Poly-D-Lysine 384-Well plate (Corning, 356663) at a density of 160000 cells/mL in 50 μL/well. Culture and assay media consisted of DMEM (Gibco, 11995-065) supplemented with 1% Penicillin-Streptomycin and 10% FBS (Hyclone, SV30087.03).
MITO-ID® MP detection Kit (ENZ-51018) was used and manufacturer instructions followed. Cells were allowed to settle for 30 min at room temperature and further incubated overnight (37° C. and 5% CO2) for adherence. Next day, test compounds (50-10 μM) and vehicle DMSO (0.2%) were added at the recommended volumes to the 384-well plate for 7 days without media change using a Tecan compound dispenser. All the solutions and wash buffers were prepared and dispensed according to manufacturer's volumes for a 384-well plate format.

SMILES | activation at 10 µM [1] [%] | activation at 10 µM (HepG2 cells [2]) [%] | other results
CC(=O)SCCNC(=O)CCNC(=O)[C@H](O)C(C)(C)COC(=O)O[C@H](CC(=O)[O-])C[N+](C)(C)C [Compound 183, (12R,18R)-12-hydroxy-13,13-dimethyl-2,7,11,16-tetraoxo-18-((trimethylammonio)methyl)-15,17-dioxa-3-thia-6,10-diazaicosan-20-oate] | ≥ 10 | ≥ 30 | –
CC(C(=O)O)C(=O)SCCNC(=O)CCNC(=O)[C@H](O)C(C)(C)CO (stereo partly drawn) [Compound 393] | ≥ 10 | ≥ 30 | –
CC(=O)NCC(=O)O[C@@H](C(=O)NCCC(=O)NCCSC(=O)CCC(=O)O)C(C)(C)CO [Compound 1296, 4-[(2-[3-[(2R)-2-[(2-acetamidoacetyl)oxy]-4-hydroxy-3,3-dimethylbutanamido]propanamido]ethyl)sulfanyl]-4-oxobutanoic acid] | – | ≥ 10 | activation at 10 µM ([3]; assay condition D (1 mM glucose, 10% FBS), 10 μM, read-out: Increase in Spare Capacity AUC): ≥ 30%
C[C@H](O)CC(=O)SCCNC(=O)CCNC(=O)[C@H](O)C(C)(C)CO [Compound 1246, (2R)-2,4-dihydroxy-N-{2-[(2-{[(3S)-3-hydroxybutanoyl]sulfanyl}ethyl)carbamoyl]ethyl}-3,3-dimethylbutanamide] | – | – | inhibition at 50 µM (HepG2 cells [4]): > 50%
COC(=O)CCC(=O)SCCNC(=O)CCNC(=O)[C@H](OC(C)=O)C(C)(C)COC(C)=O [Compound 214, methyl 4-[(2-[3-[(2R)-2,4-bis(acetyloxy)-3,3-dimethylbutanamido]propanamido]ethyl)sulfanyl]-4-oxobutanoate] | – | ≥ 20 | activation at 50 µM ([3]; assay condition A (10 mM glucose, 2 mM L-glutamine, 1 mM pyruvate, 10% FBS), read-out: Increase in Spare Capacity AUC): ≥ 50%; activation at 50 µM ([3]; assay condition D (1 mM glucose, 10% FBS), read-out: Increase in Spare Capacity AUC): ≥ 10%
CC(=O)SCCNC(=O)CCNC(=O)[C@H](O)C(C)(C)COC(=O)OCC[N+](C)(C)C [Compound 503, [2-([[(3R)-3-[(2-[[2-(acetylsulfanyl)ethyl]carbamoyl]ethyl)carbamoyl]-3-hydroxy-2,2-dimethylpropoxy]carbonyl]oxy)ethyl]trimethylazanium] | – | – | activation at 50 µM ([3]; assay condition A (10 mM glucose, 2 mM L-glutamine, 1 mM pyruvate, 10% FBS), read-out: Increase in Maximal Respiratory Capacity AUC): ≥ 10%; activation at 50 µM (HepG2 cells [2]; 50 uM): ≥ 20%
